In ChEMBL document CHEMBL1201862, “PubChem BioAssay data set” (2004):
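Following 48 hours of exposure in 96-well plates, responses at five concentrations were used to interpolate endpoints linearly. GI50 is the concentration that inhibits growth by half.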 Activity calls are given as the source filed them. Cut-off read from the data, not from the text of the source: active = GI50 up to about 1.1 µM and inactive = higher.

Experiments:
Assay in all cases: NCI anticancer screen, dose series, 48 h
786-0 = test system: 786-0
A549 = test system: A549
ACHN = test system: ACHN
CCRF-CEM = test system: CCRF-CEM
COLO 205 = test system: COLO 205
DLD-1 = test system: DLD-1
DMS-114 = test system: DMS-114
DMS-273 = test system: DMS-273
EKVX = test system: EKVX
HCC 2998 = test system: HCC 2998
HCT-116 = test system: HCT-116
HCT-15 = test system: HCT-15
HL-60 = test system: HL-60
HOP-18 = test system: HOP-18
HOP-92 = test system: HOP-92
HT-29 = test system: HT-29
IGROV-1 = test system: IGROV-1
K562 = test system: K562
KM-20L2 = test system: KM-20L2
KM12 = test system: KM12
LOX IMVI = test system: LOX IMVI
LXFL 529 = test system: LXFL 529
M14 = test system: M14
M19-MEL = test system: M19-MEL
MOLT-4 = test system: MOLT-4
Malme-3M = test system: Malme-3M
NCI-H226 = test system: NCI-H226
NCI-H23 = test system: NCI-H23
NCI-H460 = test system: NCI-H460
NCI-H522 = test system: NCI-H522
OVCAR-3 = test system: OVCAR-3
OVCAR-4 = test system: OVCAR-4
OVCAR-5 = test system: OVCAR-5
OVCAR-8 = test system: OVCAR-8
RPMI-8226 = test system: RPMI-8226
RXF 393 = test system: RXF 393
SF-268 = test system: SF-268
SF-295 = test system: SF-295
SF-539 = test system: SF-539
SK-MEL-28 = test system: SK-MEL-28
SK-MEL-2 = test system: SK-MEL-2
SK-MEL-5 = test system: SK-MEL-5
SK-OV-3 = test system: SK-OV-3
SN12C = test system: SN12C
SNB-19 = test system: SNB-19
SNB-75 = test system: SNB-75
SNB-78 = test system: SNB-78
SR = test system: SR
SW-620 = test system: SW-620
TK-10 = test system: TK-10
U-251 = test system: U-251
UACC-257 = test system: UACC-257
UACC-62 = test system: UACC-62
UO-31 = test system: UO-31
XF498 = test system: XF498

O=C1C(=Cc2cccs2)C(=O)N(CCc2ccccc2)S(=O)(=O)N1CCc1ccccc1
GI50 (786-0): > 50 µM (inactive)
GI50 (A549): > 50 µM (inactive)
GI50 (ACHN): 22.6 µM (inactive)
GI50 (CCRF-CEM): 36.9 µM (inactive)
GI50 (COLO 205): > 50 µM (inactive)
GI50 (DLD-1): > 50 µM (inactive)
GI50 (DMS-114): 10.4 µM (inactive)
GI50 (DMS-273): > 50 µM (inactive)
GI50 (EKVX): > 50 µM (inactive)
GI50 (HCC 2998): > 50 µM (inactive)
GI50 (HCT-116): 11.7 µM (inactive)
GI50 (HCT-15): > 50 µM
GI50 (HL-60): 14 µM (inactive)
GI50 (HOP-18): > 50 µM (inactive)
GI50 (HOP-92): > 50 µM (inactive)
GI50 (HT-29): > 50 µM (inactive)
GI50 (IGROV-1): 9.2 µM (inactive)
GI50 (K562): 32.7 µM (inactive)
GI50 (KM-20L2): > 50 µM (inactive)
GI50 (KM12): > 50 µM (inactive)
GI50 (LOX IMVI): 28.9 µM (inactive)
GI50 (LXFL 529): > 50 µM (inactive)
GI50 (M14): > 50 µM (inactive)
GI50 (M19-MEL): > 50 µM (inactive)
GI50 (MOLT-4): > 50 µM (inactive)
GI50 (Malme-3M): > 50 µM (inactive)
GI50 (NCI-H226): > 50 µM (inactive)
GI50 (NCI-H23): > 50 µM (inactive)
GI50 (NCI-H460): > 50 µM (inactive)
GI50 (NCI-H522): 15.5 µM (inactive)
GI50 (OVCAR-3): > 50 µM (inactive)
GI50 (OVCAR-4): > 50 µM (inactive)
GI50 (OVCAR-5): > 50 µM (inactive)
GI50 (OVCAR-8): > 50 µM (inactive)
GI50 (RPMI-8226): 20.7 µM (inactive)
GI50 (RXF 393): 20.7 µM (inactive)
GI50 (SF-268): 36.2 µM (inactive)
GI50 (SF-295): > 50 µM (inactive)
GI50 (SF-539): > 50 µM (inactive)
GI50 (SK-MEL-28): > 50 µM (inactive)
GI50 (SK-MEL-2): > 50 µM (inactive)
GI50 (SK-MEL-5): > 50 µM (inactive)
GI50 (SK-OV-3): > 50 µM (inactive)
GI50 (SN12C): > 50 µM (inactive)
GI50 (SNB-19): > 50 µM (inactive)
GI50 (SNB-75): > 50 µM (inactive)
GI50 (SNB-78): > 50 µM (inactive)
GI50 (SR): > 50 µM (inactive)
GI50 (SW-620): > 50 µM (inactive)
GI50 (TK-10): > 50 µM (inactive)
GI50 (U-251): 12.9 µM (inactive)
GI50 (UACC-257): > 50 µM (inactive)
GI50 (UACC-62): > 50 µM (inactive)
GI50 (UO-31): > 50 µM (inactive)
GI50 (XF498): > 50 µM (inactive)
